Measured values published in ChEMBL document CHEMBL6177948, “Discovery of potential Leonurine-based therapeutic lead MJ210 attenuates Parkinson's disease pathogenesis via NF-κB and MAPK pathways: Mechanistic insights from in vitro and in vivo rotenone models” (Eur J Med Chem, 2025).
Active and inactive are the calls of the source. The calls are words filed in the database; no cut-off is given here.

Key:
[1] = Half life in male Wistar rat at 50 mg/kg, ip measured after 24 hrs; assay type: ADME, organism-based; conditions: in vivo
[2] = system: Rattus norvegicus; test: Anti-parkinson activity in rotenone-induced male Wistar rat assessed as increase in TH positive fiber density in striatum at 5 mg/kg, ip pretreated with compound every alternative days followed by rotenone addition and measured after 42 days by immunofluorescence staining based analysis; assay type: functional, organism-based; conditions: time 42.0 day
[3] = system: SH-SY5Y; test: Neuroprotective activity against rotenone-induced neuronal apoptosis in human SH-SY5Y cells assessed as decrease in number of apoptotic cells at 5 uM preincubated with compound for 24 hrs followed by rotenone addition and measured after 24 hrs by Hoechst 33258 staining based fluorescence microscopic analysis; assay type: functional, cell-based; conditions: time 48.0 hrs
[4] = system: Rattus norvegicus; test: Anti-parkinson activity in rotenone-induced male Wistar rat model assessed as prevention of rotenone-induced dopaminergic neuronal death at 5 mg/kg, ip by immunoblotting analysis; assay type: functional, organism-based
[5] = system: Rattus norvegicus; test: Anti-parkinson activity in rotenone-induced male Wistar rat model assessed as increase DAT expression in striatum at 5 mg/kg, ip pretreated with compound every alternative days followed by rotenone addition and measured after 42 days by Western blotting analysis; assay type: functional, organism-based; conditions: time 42.0 day
[6] = system: Rattus norvegicus; test: Anti-parkinson activity in rotenone-induced neurodegeneration in male Wistar rat model assessed as reduction in pyknotic neurons in cortex at 5 mg/kg, ip pretreated with compound every alternative days followed by rotenone addition and measured after 42 days by Nissl staining based analysis; assay type: functional, organism-based; conditions: time 42.0 day
[7] = system: Rattus norvegicus; test: Anti-parkinson activity in rotenone-induced neurodegeneration in male Wistar rat model assessed as decrease neuronal damage in substantia nigra at 5 mg/kg, ip pretreated with compound every alternative days followed by rotenone addition and measured after 42 days by Nissl staining based analysis; assay type: functional, organism-based; conditions: time 42.0 day
[8] = system: Rattus norvegicus; test: Improvement of motor dysfunction in rotenone-induced male Wistar rat model assessed as reduction in number of falls at 5 mg/kg, ip pretreated with compound every alternative days followed by rotenone addition and measured after 42 days by rotarod test; assay type: functional, organism-based; conditions: time 42.0 day
[9] = system: SH-SY5Y; test: Anti-inflammatory activity against rotenone-induced human SH-SY5Y cells assessed as reduction in TNF-alpha mRNA expression level by RT-qPCR analysis; assay type: functional, cell-based
[10] = system: Rattus norvegicus; test: Anti-inflammatory activity in rotenone-induced male Wistar rat model assessed as reduction in IL-1beta expression level in striatum at 5 mg/kg, ip pretreated with compound every alternative days followed by rotenone addition and measured after 42 days by ELISA; assay type: functional, organism-based; conditions: time 42.0 day
[11] = system: SH-SY5Y; test: Neuroprotective activity against rotenone-induced cytotoxicity in human SH-SY5Y cells assessed as increase in cell viability at 1 to 20 uM incubated for 24 hrs by MTT assay relative to control; assay type: functional; conditions: dose 1-20 µM
[12] = system: Rattus norvegicus; test: Anti-inflammatory activity in rotenone-induced male Wistar rat model assessed as reduction in COX2 expression level in striatum at 5 mg/kg, ip pretreated with compound every alternative days followed by rotenone addition and measured after 42 days by ELISA; assay type: functional, organism-based; conditions: time 42.0 day
[13] = system: Rattus norvegicus; test: Anti-parkinson activity in rotenone-induced male Wistar rat model assessed as increase DAT expression in substantia nigra at 5 mg/kg, ip pretreated with compound every alternative days followed by rotenone addition and measured after 42 days by Western blotting analysis; assay type: functional, organism-based; conditions: time 42.0 day
[14] = system: SH-SY5Y; test: Reversal of rotenone-induced mitochondrial membrane depolarization in human SH-SY5Y cells assessed as decrease in JC-10 monomers by measuring green fluorescence at 5 uM preincubated with compound for 24 hrs followed by rotenone addition and measured after 24 hrs by JC-10 based fluorescence microscopic analysis; assay type: functional, cell-based
[15] = Toxicity in male Wistar rat assessed as change in cellular structure of liver at 1 to 10 mg/kg by H and E staining based analysis; assay type: organism-based; conditions: in vivo, dose 1-10 mg/kg
[16] = system: Rattus norvegicus; test: Anti-parkinson activity in rotenone-induced male Wistar rat model assessed as improvement in t-turn metrics at 5 mg/kg, ip pretreated with compound every alternative days followed by rotenone addition and measured after 42 days by pole test; assay type: functional, organism-based; conditions: time 42.0 day
[17] = system: Rattus norvegicus; test: Anti-parkinson activity in rotenone-induced neurodegeneration in male Wistar rat model assessed as reduction in necrosis in substantia nigra at 5 mg/kg, ip pretreated with compound every alternative days followed by rotenone addition and measured after 42 days by Nissl staining based analysis; assay type: functional, organism-based; conditions: time 42.0 day
[18] = target: Transcription factor p65 (Homo sapiens) (UniProt Q04206); test: Inhibition of rotenone-induced NFkappaB p65 translocation from cytosol to nucleus in human SH-SY5Y cells pretreated with compound followed by rotenone addition by DAPI staining based immunocytochemistry analysis; assay type: cell-based
Sequence of Transcription factor p65 (Homo sapiens) (Q04206 whole entry): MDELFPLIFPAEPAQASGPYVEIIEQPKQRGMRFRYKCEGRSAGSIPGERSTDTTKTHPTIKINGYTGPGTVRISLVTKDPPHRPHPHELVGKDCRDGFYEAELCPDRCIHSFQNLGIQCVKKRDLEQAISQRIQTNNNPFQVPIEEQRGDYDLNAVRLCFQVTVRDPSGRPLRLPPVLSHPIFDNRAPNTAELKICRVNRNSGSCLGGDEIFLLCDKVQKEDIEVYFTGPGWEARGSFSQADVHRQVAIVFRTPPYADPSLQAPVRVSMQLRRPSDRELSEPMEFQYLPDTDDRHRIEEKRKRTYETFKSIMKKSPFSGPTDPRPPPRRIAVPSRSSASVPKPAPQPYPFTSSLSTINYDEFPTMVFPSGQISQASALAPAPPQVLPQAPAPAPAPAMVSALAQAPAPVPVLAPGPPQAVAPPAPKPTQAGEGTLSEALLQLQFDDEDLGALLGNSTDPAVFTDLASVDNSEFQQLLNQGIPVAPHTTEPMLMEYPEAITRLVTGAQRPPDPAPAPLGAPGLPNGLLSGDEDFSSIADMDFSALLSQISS

[19] = Toxicity in male Wistar rat assessed as change in kidney morphology at 1 to 10 mg/kg by H and E staining based analysis; assay type: organism-based; conditions: in vivo, dose 1-10 mg/kg
[20] = system: SH-SY5Y; test: Anti-apoptotic activity in rotenone-induced human SH-SY5Y cells assessed as reduction in Caspase-3 expression by Western blotting analysis; assay type: functional, cell-based
[21] = system: Rattus norvegicus; test: Anti-inflammatory activity in rotenone-induced male Wistar rat model assessed as reduction in PGE2 expression level in striatum at 5 mg/kg, ip pretreated with compound every alternative days followed by rotenone addition and measured after 42 days by ELISA; assay type: functional, organism-based; conditions: time 42.0 day
[22] = system: SH-SY5Y; test: Anti-apoptotic activity in rotenone-induced human SH-SY5Y cells assessed as increase in Bcl-xL expression by Western blotting analysis; assay type: functional, cell-based
[23] = system: Rattus norvegicus; test: Anti-parkinson activity in rotenone-induced neurodegeneration in male Wistar rat model assessed as reduced edema in substantia nigra at 5 mg/kg, ip pretreated with compound every alternative days followed by rotenone addition and measured after 42 days by H and E staining based analysis; assay type: functional, organism-based; conditions: time 42.0 day
[24] = system: Rattus norvegicus; test: In vivo inhibition of MAPK signaling pathway in rotenone-induced parkinson disease male Wistar rat model assessed as reduction in ERK1/2 phosphorylation level in substantia nigra at 5 mg/kg, ip pretreated with compound every alternative days followed by rotenone addition and measured after 42 days by Western blotting analysis; assay type: functional, organism-based; conditions: time 42.0 day
[25] = system: Rattus norvegicus; test: Anti-parkinson activity in rotenone-induced neurodegeneration in male Wistar rat model assessed as reduced edema in striatum at 5 mg/kg, ip pretreated with compound every alternative days followed by rotenone addition and measured after 42 days by H and E staining based analysis; assay type: functional, organism-based; conditions: time 42.0 day
[26] = system: SH-SY5Y; test: Anti-inflammatory activity against rotenone-induced human SH-SY5Y cells assessed as reduction in IL-1beta mRNA expression level by RT-qPCR analysis; assay type: functional, cell-based
[27] = system: Rattus norvegicus; test: Improvement in rotenone-induced depression-like behavior in male Wistar rat model assessed as improvement in sucrose intake at 5 mg/kg, ip pretreated with compound every alternative days followed by rotenone addition and measured after 42 days by sucrose preference test; assay type: functional, organism-based; conditions: time 42.0 day
[28] = system: SH-SY5Y; test: Neuroprotective activity against rotenone-induced ROS formation in human SH-SY5Y cells assessed as decrease in ROS level at 5 uM preincubated with compound for 24 hrs followed by rotenone addition by H2DCFDA staining based fluorescence microscopic analysis; assay type: functional, cell-based

SMILES: COc1cc(CCC(=O)N2CCCCC2)cc(OC)c1OC(=O)c1ccccn1
- half-life [1]: 510 min
- Activity [2]: Active
- Activity [3]: Active
- Activity [4]: Active
- Activity [5]: Active
- Activity [6]: Active
- Activity [7]: Active
- Activity [8]: Active
- Activity [9]: Active
- Activity [10]: Active
- Activity [11]: 81.9%
- Activity [12]: Active
- Activity [13]: Active
- Activity [14]: Active
- Activity [15]: Non-toxic
- Activity [16]: Active
- Activity [17]: Active
- inhibition [18]: Active
- Activity [19]: Non-toxic
- Activity [20]: Active
- Activity [21]: Active
- Activity [22]: Active
- Activity [23]: Active
- inhibition [24]: Active
- Activity [25]: Active
- Activity [26]: Active
- Activity [27]: Active
- Activity [28]: Active
